# According to patent publication US20250129078A1, “ERBB2 INHIBITORS” (Cogent Biosciences, Inc., priority 2023, published 2025):
# Where a name gives a salt, the structure may show the parent alone. Read-outs that look alike come from different tables or passages of the source.
# Tests used:
# ErbB2 V777L = ErbB2 V777L (Homo sapiens (Human), UniProt P04626, V777L); assay: ErbB enzyme assay (CisBio HTRF-KinEASE-TK), ErbB2 V777L; format: biochemical
# Method: In vitro enzyme assays based on CisBio HTRF-KinEASE-TK technology were used to determine compound potencies. […] After another 1 h incubation at ambient temperature, the extent of substrate phosphorylation was determined using a PerkinElmer EnVision multimode plate reader via time-resolved fluorescence dual wavelength detection. The percent of control (POC) was calculated using the ratio of emission at […] to the emission at 620 nm. One hundred POC was determined using DMSO only controls (no test compounds present) and zero POC was determined using pre-quenched controls reactions. A 4-parameter logistic equation was fit to the POC values as a function of the test compound concentration and the IC50 value was determined as the point where the curve crossed 50 POC.
# EGFR WT = EGFR WT (Homo sapiens (Human), UniProt P00533); assay: ErbB enzyme assay (CisBio HTRF-KinEASE-TK), EGFR WT; format: biochemical; details: ATP at Km (25 μM), 1 h incubation
# Chain of EGFR WT (P00533 25-1210): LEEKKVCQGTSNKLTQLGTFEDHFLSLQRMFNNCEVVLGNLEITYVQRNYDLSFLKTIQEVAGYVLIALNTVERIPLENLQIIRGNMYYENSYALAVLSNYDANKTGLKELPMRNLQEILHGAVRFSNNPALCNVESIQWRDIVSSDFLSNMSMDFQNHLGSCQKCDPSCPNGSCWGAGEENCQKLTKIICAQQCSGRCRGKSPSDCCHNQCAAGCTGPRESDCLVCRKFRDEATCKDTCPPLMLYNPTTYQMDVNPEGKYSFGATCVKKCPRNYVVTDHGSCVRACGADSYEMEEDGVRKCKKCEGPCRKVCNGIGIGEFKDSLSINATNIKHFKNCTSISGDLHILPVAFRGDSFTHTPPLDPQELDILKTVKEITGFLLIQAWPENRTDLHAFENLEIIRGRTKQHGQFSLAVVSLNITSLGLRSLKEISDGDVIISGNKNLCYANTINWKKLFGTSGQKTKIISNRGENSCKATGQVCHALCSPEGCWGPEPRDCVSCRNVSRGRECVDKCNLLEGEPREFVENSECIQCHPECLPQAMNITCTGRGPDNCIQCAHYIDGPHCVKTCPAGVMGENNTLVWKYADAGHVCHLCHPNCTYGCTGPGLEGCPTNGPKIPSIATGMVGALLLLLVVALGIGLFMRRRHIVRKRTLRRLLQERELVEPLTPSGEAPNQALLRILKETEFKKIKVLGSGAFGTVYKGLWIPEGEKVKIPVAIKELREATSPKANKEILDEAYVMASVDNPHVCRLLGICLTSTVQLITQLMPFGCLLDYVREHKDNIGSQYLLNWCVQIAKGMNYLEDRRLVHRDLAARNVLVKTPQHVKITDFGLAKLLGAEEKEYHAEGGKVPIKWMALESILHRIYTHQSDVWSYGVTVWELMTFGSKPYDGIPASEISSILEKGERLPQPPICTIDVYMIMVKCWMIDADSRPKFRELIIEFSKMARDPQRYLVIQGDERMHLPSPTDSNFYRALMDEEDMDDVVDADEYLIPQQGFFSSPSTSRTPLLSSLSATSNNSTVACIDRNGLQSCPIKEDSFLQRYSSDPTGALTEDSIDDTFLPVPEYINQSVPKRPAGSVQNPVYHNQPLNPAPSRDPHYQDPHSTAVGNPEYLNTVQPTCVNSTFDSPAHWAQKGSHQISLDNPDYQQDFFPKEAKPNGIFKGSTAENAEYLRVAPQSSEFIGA
# Summary of the method: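 IC50 comes from a 4-parameter fit where the curve crosses 50 percent of control, using the 655/620 nm time-resolved fluorescence ratio with DMSO-only and pre-quenched references. Kinase reactions ran 1 h at ambient temperature before Sa-XL665/cryptate-antibody detection (1 h).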
# [1] = ErbB2 V777L enzyme, ATP at Km (110 μM), 1 h incubation
# Chain of ErbB2 V777L (P04626 23-1255 V777L): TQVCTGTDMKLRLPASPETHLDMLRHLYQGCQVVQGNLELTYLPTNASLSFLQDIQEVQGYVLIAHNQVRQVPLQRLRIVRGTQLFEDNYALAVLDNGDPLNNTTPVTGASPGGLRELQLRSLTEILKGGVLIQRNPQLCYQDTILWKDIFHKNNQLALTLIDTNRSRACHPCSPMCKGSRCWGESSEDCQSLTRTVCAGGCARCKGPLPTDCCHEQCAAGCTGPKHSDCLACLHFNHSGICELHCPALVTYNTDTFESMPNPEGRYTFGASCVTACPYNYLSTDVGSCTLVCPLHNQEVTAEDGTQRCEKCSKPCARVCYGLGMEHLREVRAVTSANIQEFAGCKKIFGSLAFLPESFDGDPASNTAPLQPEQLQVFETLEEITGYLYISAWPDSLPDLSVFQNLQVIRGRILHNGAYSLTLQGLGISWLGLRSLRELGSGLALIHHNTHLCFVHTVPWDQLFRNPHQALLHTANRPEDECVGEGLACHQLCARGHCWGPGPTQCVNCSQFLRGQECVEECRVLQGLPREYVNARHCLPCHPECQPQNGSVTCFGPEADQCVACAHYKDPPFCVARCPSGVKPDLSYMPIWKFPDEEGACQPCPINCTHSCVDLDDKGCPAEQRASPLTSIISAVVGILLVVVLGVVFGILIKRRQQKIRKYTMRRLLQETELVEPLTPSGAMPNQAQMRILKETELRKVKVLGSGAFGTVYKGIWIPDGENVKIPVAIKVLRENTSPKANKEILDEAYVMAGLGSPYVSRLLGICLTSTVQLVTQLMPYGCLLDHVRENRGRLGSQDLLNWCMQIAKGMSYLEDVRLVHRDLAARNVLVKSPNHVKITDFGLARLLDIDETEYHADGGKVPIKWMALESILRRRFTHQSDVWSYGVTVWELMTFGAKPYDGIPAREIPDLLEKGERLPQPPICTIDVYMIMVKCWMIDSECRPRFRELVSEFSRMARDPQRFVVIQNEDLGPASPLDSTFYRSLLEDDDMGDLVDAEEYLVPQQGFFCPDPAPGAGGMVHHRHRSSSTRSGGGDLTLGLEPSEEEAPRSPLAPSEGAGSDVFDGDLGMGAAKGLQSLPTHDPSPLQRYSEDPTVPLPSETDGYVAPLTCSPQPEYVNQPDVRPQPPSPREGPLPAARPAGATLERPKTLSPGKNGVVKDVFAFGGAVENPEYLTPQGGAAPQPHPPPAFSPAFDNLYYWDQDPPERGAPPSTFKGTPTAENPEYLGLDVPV
SMILES,IC50 (ErbB2 V777L) [nM],IC50 (EGFR WT) [nM],IC50 (ErbB2 V777L; [1]) [nM]
"C=CC(=O)N1CCC[C@@H](N(C)c2ncc3ncnc(Nc4ccc(Oc5ccc6c(c5)nnn6C)c(C)c4)c3n2)C1 [Compound 223, (R)-1-(3-(methyl(8-((3-methyl-4-((1-methyl-1H-benzo[d][1,2,3]triazol-5-yl)oxy)phenyl)amino)pyrimido[5,4-d]pyrimidin-2-yl)amino)piperidin-1-yl)prop-2-en-1-one]",100 to 500,500 to 1000,
"C=CC(=O)N1C2CCCC1CC(c1ccc3ncnc(Nc4ccc(Oc5ccc6c(c5)nnn6C)c(C)c4)c3n1)C2 (stereo not shown) [Compound 395, 1-(3-(4-((3-methyl-4-((1-methyl-1H-benzo[d][1,2,3]triazol-5-yl)oxy)phenyl)amino)pyrido[3,2-d]pyrimidin-6-yl)-9-azabicyclo[3.3.1]nonan-9-yl)prop-2-en-1-one trifluoroacetate]",100 to 500,100 to 500,
"C=CC(=O)NC1CCN(c2ccc3ncnc(Nc4ccc(Oc5ccc6c(c5)nnn6C)c(C)c4F)c3n2)CC1 [Compound 272, N-(1-(4-((2-fluoro-3-methyl-4-((1-methyl-1H-benzo[d][1,2,3]triazol-5-yl)oxy)phenyl)amino)pyrido[3,2-d]pyrimidin-6-yl)piperidin-4-yl)acrylamide]",100 to 500,100 to 500,
"C=CC(=O)N1CCN(c2ccc3ncnc(Nc4ccc(Oc5ccc6c(c5)nnn6C)c(C)c4)c3n2)C[C@H]1C(C)C [Compound 297, (R)-1-(2-isopropyl-4-(4-((3-methyl-4-((1-methyl-1H-benzo[d][1,2,3]triazol-5-yl)oxy)phenyl)amino)pyrido[3,2-d]pyrimidin-6-yl)piperazin-1-yl)prop-2-en-1-one]",50 to 100,100 to 500,
"C=CC(=O)N1CC2CC(C1)N2c1ncc2ncnc(Nc3ccc(Oc4ccc5c(c4)nnn5C)c(C)c3)c2n1 [Compound 16, 1-(6-(8-((3-methyl-4-((1-methyl-1H-benzo[d][1,2,3]triazol-5-yl)oxy)phenyl)amino)pyrimido[5,4-d]pyrimidin-2-yl)-3,6-diazabicyclo[3.1.1]heptan-3-yl)prop-2-en-1-one]",100 to 500,100 to 500,
"C=CC(=O)N1CCN(c2ncc3ncnc(Nc4ccc(Oc5ccc6c(c5)nnn6C)c(C)c4)c3n2)C[C@H]1C1CC1 [Compound 196, (R)-1-(2-cyclopropyl-4-(8-((3-methyl-4-((1-methyl-1H-benzo[d][1,2,3]triazol-5-yl)oxy)phenyl)amino)pyrimido[5,4-d]pyrimidin-2-yl)piperazin-1-yl)prop-2-en-1-one]",100 to 500,500 to 1000,
"C=CC(=O)N1CCN(c2ncc3ncnc(Nc4ccc(Oc5ccc6c(c5)nnn6C)c(C)c4)c3n2)C[C@H]1CC [Compound 119, (R)-1-(2-ethyl-4-(8-((3-methyl-4-((1-methyl-1H-benzo[d][1,2,3]triazol-5-yl)oxy)phenyl)amino)pyrimido[5,4-d]pyrimidin-2-y1)piperazin-1-yl)prop-2-en-1-one]",100 to 500,500 to 1000,
"C=CC(=O)N1CCN(c2ccc3ncnc(Nc4cc(C)c(Oc5ccc6c(c5)ncn6C(F)F)cc4OC)c3n2)CC1 [Compound 370, 1-(4-(4-((4-((1-(difluoromethyl)-1H-benzo[d]imidazol-5-yl)oxy)-2-methoxy-5-methylphenyl)amino)pyrido[3,2-d]pyrimidin-6-yl)piperazin-1-yl)prop-2-en-1-one]",50 to 100,100 to 500,
"C=CC(=O)N1CCN(c2ccc3ncnc(Nc4cc(C)c(Oc5ccc6c(c5)ncn6C(F)F)cc4OC)c3n2)C[C@H]1C [Compound 307, (R)-1-(4-(4-((4-((1-(difluoromethyl)-1H-benzo[d]imidazol-5-yl)oxy)-2-methoxy-5-methylphenyl)amino)pyrido[3,2-d]pyrimidin-6-yl)-2-methylpiperazin-1-yl)prop-2-en-1-one]",100 to 500,100 to 500,
"C=C(F)C(=O)N1CCN(c2ncc3ncnc(Nc4ccc(Oc5ccc6c(c5)nnn6C)c(C)c4)c3n2)C[C@@H]1C(F)(F)F [Compound 231, (R)-2-fluoro-1l-(4-(8-((3-methyl-4-((1-methyl-1H-benzo[d][1,2,3]triazol-5-yl)oxy)phenyl)amino)pyrimido[5,4-d]pyrimidin-2-yl)-2-(trifluoromethyl)piperazin-1-yl)prop-2-en-1-one]",500 to 1000,500 to 1000,
"C=C(COC)C(=O)N1CC(F)(F)C12CN(c1ncc3ncnc(Nc4ccc(Oc5ccc6c(c5)nnn6C)c(C)c4)c3n1)C2 [Compound 214, 1-(3,3-difluoro-6-(8-((3-methyl-4-((1-methyl-1H-benzo[d][1,2,3]triazol-5-yl)oxy)phenyl)amino)pyrimido [5,4-d]pyrimidin-2-yl)-1,6-diazaspiro[3.3]heptan-1-yl)-2-(methoxymethyl) prop-2-en-1-one]",100 to 500,500 to 1000,
"C=CC(=O)N1CC2(CC(N(C)c3ncc4ncnc(Nc5ccc(Oc6ccc7c(c6)nnn7C)c(C)c5)c4n3)C2)C1 [Compound 124, 1-(6-(methyl(8-((3-methyl-4-((1-methyl-1H-benzo[d][1,2,3]triazol-5-yl)oxy)phenyl)amino)pyrimido [5,4-d]pyrimidin-2-yl)amino)-2-azaspiro[3.3]heptan-2-yl)prop-2-en-1-one]",50 to 100,100 to 500,
"C=CC(=O)N1CCCN(c2ccc3ncnc(Nc4ccc(Oc5ccc6c(c5)nnn6C)c(C)c4)c3n2)CC1 [Compound 353, 1-(4-(4-((3-methyl-4-((1-methyl-1H-benzo[d][1,2,3]triazol-5-yl)oxy)phenyl)amino)pyrido[3,2-d]pyrimidin-6-yl)-1,4-diazepan-1-yl)prop-2-en-1-one]",,,100 to 500
"C=CC(=O)N1CCN(c2ncc3ncnc(Nc4cc(C)c(Oc5cc(F)c6c(c5)nnn6C)cc4OC)c3n2)C[C@H]1C [Compound 166, (R)-1-(4-(8-((4-((7-fluoro-1-methyl-1H-benzo[d][1,2,3]triazol-5-yl)oxy)-2-methoxy-5-methylphenyl)amino)pyrimido[5,4-d]pyrimidin-2-y1)-2-methylpiperazin-1-yl)prop-2-en-1-one]",,,500 to 1000
"C=CC(=O)N1CCN(c2ncc3ncnc(Nc4ccc(Oc5ccc6c(c5)nnn6C(F)(F)F)c(C)c4)c3n2)C[C@H]1C [Compound 195, (R)-1-(2-methyl-4-(8-((3-methyl-4-((1-(trifluoromethyl)-1H-benzo[d][1,2,3]triazol-5-yl)oxy)phenyl)amino)pyrimido[5,4-d]pyrimidin-2-yl)piperazin-1-yl)prop-2-en-1-one]",,100 to 500,

# Second part, the compound after the results:
IC50 (ErbB2 V777L) [nM],IC50 (EGFR WT) [nM],IC50 (ErbB2 V777L; [1]) [nM],SMILES
100 to 500,100 to 500,,"C=CC(=O)N1C2CCC1CN(c1ccc3ncnc(Nc4cc(C)c(Oc5ccc6c(c5)nnn6C)cc4OC)c3n1)C2 [Compound 80, 1-(3-(4-((2-methoxy-5-methyl-4-((1-methyl-1H-benzo[d][1,2,3]triazol-5-yl)oxy)phenyl)amino)pyrido[3,2-d]pyrimidin-6-yl)-3,8-diazabicyclo[3.2.1]octan-8-yl)prop-2-en-1-one]"
100 to 500,100 to 500,,"Cc1cc(Nc2ncnc3cnc(N4CCN(C(=O)/C=C/CN5CCOCC5)CC4)nc23)ccc1Oc1ccc2c(c1)nnn2C [Compound 53, (E)-1-(4-(8-((3-methyl-4-((1-methyl-1H-benzo[d][1,2,3]triazol-5-yl)oxy)phenyl)amino)pyrimido [5,4-d]pyrimidin-2-yl)piperazin-1-yl)-4-morpholinobut-2-en-1-one formate]"
50 to 100,< 50,,"C=CC(=O)N[C@@H]1C[C@H](F)CN(c2ccc3ncnc(Nc4ccc(Oc5ccc6c(c5)nnn6C)c(C)c4F)c3n2)C1 [Compound 298, N-((3R,5S)-5-fluoro-1-(4-((2-fluoro-3-methyl-4-((1-methyl-1H-benzo[d][1,2,3]triazol-5-yl)oxy)phenyl)amino)pyrido[3,2-d]pyrimidin-6-yl)piperidin-3-yl)acrylamide]"
,< 50,,"C=CC(=O)N1CC2CC1CN2c1ccc2ncnc(Nc3ccc(Oc4ccc5c(c4)nnn5C)c(C)c3)c2n1 (stereo not shown) [Compound 81, 1-(5-(4-((3-methyl-4-((1-methyl-1H-benzo[d][1,2,3]triazol-5-yl)oxy)phenyl)amino)pyrido[3,2-d]pyrimidin-6-yl)-2,5-diazabicyclo[2.2.1]heptan-2-yl)prop-2-en-1-one]"
,< 50,,"C=CC(=O)N1CCN(c2ccc3ncnc(Nc4ccc(Oc5ccc6c(c5)nnn6C)c(C)c4)c3n2)C[C@@H]1CC#N [Compound 83, (S)-2-(1-acryloyl-4-(4-((3-methyl-4-((1-methyl-1H-benzo[d][1,2,3]triazol-5-yl)oxy)phenyl)amino)pyrido[3,2-d]pyrimidin-6-yl)piperazin-2-yl)acetonitrile]"
,50 to 100,,"C=CC(=O)N1CCN(c2ccc3ncnc(Nc4ccc(Oc5ccc6c(c5)nnn6C)c(C)c4)c3n2)CC1(C)C [Compound 89, 1-(2,2-dimethyl-4-(4-((3-methyl-4-((1-methyl-1H-benzo[d][1,2,3]triazol-5-yl)oxy)phenyl)amino)pyrido[3,2-d]pyrimidin-6-yl)piperazin-1-yl)prop-2-en-1-one]"
,< 50,,"Cc1cc(Nc2ncnc3cnc(N4CCN(C(=O)/C=C/C(F)(F)F)CC4)nc23)ccc1Oc1ccc2c(c1)nnn2C [Compound 217, 4,4,4-trifluoro-1-(4-(8-((3-methyl-4-((1-methyl-1H-benzo[d][1,2,3]triazol-5-yl)oxy)phenyl)amino)pyrimido [5,4-d]pyrimidin-2-yl)piperazin-1-yl) but-2-en-1-one]"
